Holding throughout (test): NCI-60 cell line screen, 48 h
For assay [1], the system named is DU-145 prostate.
For assay [2], the system named is HCC-2998 colon.
Assay [3] has as its system PC-3 prostate.
Assay [4] deals with BT-549 breast.
Assay [5] relates to RPMI-8226 leukemia.
The subject of assay [6] is SK-MEL-2 melanoma.
In assay [7] the test system is UO-31 renal.
Assay [8] has as its system NCI-H460 lung.
Assay [9] relates to SK-MEL-28 melanoma.
Assay [10] has as its system NCI/ADR-RES ovarian.

SMILES strings stand for the structures.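 These data come from cells grown in 96-well plates and exposed to compound for 48 hours at five concentrations. GI50 marks 50% less growth. TGI marks complete inhibition of growth.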

Take `CCc1ccc(C2=NN(c3ccc(S(C)(=O)=O)cc3)C(=O)CC2)cc1`: the GI50 was 2.67 µM in assay [1]; 3.96 µM in [2]; 2.31 µM in assay [3]; 0.513 µM in assay [4]; 3.97 µM in assay [5]; 1.24 µM in [6]. The GI50 in assay [7] was 4.89 µM; in assay [8], 1.28 µM; in assay [9], 1.59 µM; in [10], 0.416 µM. Also, the TGI is greater than 26.8 µM in assay [1]; 33.4 µM in [2]; greater than 100 µM in assay [3]; 16.3 µM in [4]; greater than 57.6 µM in assay [5]; 98.4 µM in assay [6]. Further, the TGI in assay [7] was greater than 100 µM; in assay [8] it was 13.1 µM; in assay [9], greater than 100 µM; in assay [10] it was 2.6 µM.

Consider `Cn1c(CC(O)c2nc3ccccc3n2C)nc2ccccc21` (stereo not given), for which the TGI in [1] is greater than 21.7 µM; in [2], greater than 100 µM; in [3] it was greater than 58.8 µM; in [4] it was greater than 63.2 µM; in assay [5] it was greater than 19.1 µM; in assay [6], greater than 58.5 µM. In addition, the TGI is greater than 9.39 µM in assay [7], greater than 46.9 µM in assay [8], greater than 60.9 µM in assay [9] and greater than 67.9 µM in assay [10].

With `C=CC(C)(O)CCC1C(=C)C(O)CC2C(C)(C)CCCC12C` (stereo not given), the TGI in [1] was found to be 37.2 µM; in [2], 33.2 µM; in assay [3], 32.2 µM; in assay [4], 32.4 µM; in assay [5], 58.2 µM; in assay [6] it was 31.1 µM. Also, the TGI in assay [7] came out at 28.5 µM; in assay [8] it was 33.5 µM; in assay [9] it was 36.8 µM; in [10], 41.1 µM.

As to `Cc1ccc(O)cc1Nc1ccnc2cc(-c3ccccn3)ccc12`, the GI50 in assay [1] was 1.38 µM; in assay [2], 3.89 µM; in [3] it was 3.08 µM; in assay [4], 4.9 µM; in assay [5], 4.25 µM; in [6] it was 3.86 µM. Moreover, the GI50 in [7] was 0.246 µM; in assay [8] it was 3.65 µM; in assay [9] it was 3.38 µM; in assay [10] it was 4.49 µM. The TGI came out at 8.28 µM in [1]; 7.51 µM in [2]; 10.4 µM in [3]; 10.3 µM in assay [4]; 9.88 µM in assay [5]; 8.03 µM in [6]. For the same compound, the TGI in assay [7] was 3.77 µM; in assay [8], 7.4 µM; in [9], 6.79 µM; in assay [10], 15.3 µM.

In the case of `Cc1cc(-c2ccco2)cc(C)c1/C=C/c1cncc(-c2nn[nH]n2)c1`, the GI50 in [1], in assay [2], in assay [3], in [4], in assay [5] and in [6] was greater than 25 µM in each case. The GI50 in assay [7], in assay [8], in [9] and in assay [10] was greater than 25 µM throughout. In addition, the TGI in assay [1], in assay [2], in [3], in [4], in [5] and in assay [6] was greater than 25 µM throughout. In addition, the TGI in assay [7], in assay [8], in assay [9] and in assay [10] was greater than 25 µM each time.

As to `Cc1cn2c(/C=C3/C(=O)Nc4ccc(C(=O)O)cc43)c(C)nc2s1`, the GI50 in assay [1], in assay [2], in [3], in assay [4], in [5] and in [6] was greater than 100 µM each time. Besides, the GI50 in [7], in assay [8], in assay [9] and in [10] was greater than 100 µM in each case. Also, the TGI in [1], in [2], in [3], in assay [4], in [5] and in assay [6] was greater than 100 µM in each case. In addition, the TGI in assay [7], in assay [8], in [9] and in [10] was greater than 100 µM throughout.

Turning to `COc1cc2c(cc1OC)C(SC)C(=O)N(Cc1cccc(OC)c1OC)CC2` (stereo not given), the TGI in [1] was greater than 23 µM; in assay [2], 29.1 µM; in [3], greater than 69 µM; in [4], 33.2 µM; in assay [5], 47.5 µM; in assay [6] it was 19.1 µM. Further, the TGI in [7] is 70 µM; in [8] it was 28.8 µM; in assay [9] it was greater than 42.3 µM; in assay [10], 88.8 µM.

(Values after PubChem BioAssay (NCI).)
